Source: patent US12144869B2, “Anti-ROR1 antibody conjugates, compositions comprising anti ROR1 antibody conjugates, and methods of making and using anti-ROR1 antibody conjugates” (Sutro Biopharma, Inc., priority 2022, dated 2024)
Where two headings read alike, the source gives them in different places.

Assays:
ROR1 negative MCF7 cells = experiment: In vitro cell killing of ROR1 ADCs on MCF7; assay type: cell-based; conditions: for EC50: read-out: MCF-7 EC50
Procedure: (§1) Anti-ROR1 antibody was conjugated to different linker-warheads described herein at different DARs and the cell killing activity of the ADCs were evaluated on ROR1 positive Ntera-2 cell and ROR1 negative MCF7 cells.
(§2) Ntera-2 or MCF7 cell at 625 cells/25 μL were seeded in a 384-well flat bottom white polystyrene plate one day before the assay start. ADCs were formulated at 2× starting concentration. Filter sterilized samples were serial diluted (1:3) under sterile conditions and added onto cells in triplicates. Plates were cultured at 37° C. in a CO2 incubator for 120 hours. For cell viability measurement, 30 microliter of Cell Titer-Glo® reagent (Promega Corp, Madison, WI) was added into each well, and plates processed as per product instructions. Relative luminescence was measured on an ENVISION® plate reader (Perkin-Elmer; Waltham, MA). Relative luminescence readings were converted to % viability using untreated cells as controls. Data was fitted with non-linear regression analysis, using log (inhibitor) vs. response, variable slope, 4-parameter fit equation using GraphPad Prism.
(§3) To evaluate if the cell killing activity of anti-ROR1 ADCs is dependent on antibody binding to ROR1 expressed on cell surface, the same linker-warheads (LP3, LP4) were conjugated to an anti-GFP antibody and the cell killing of the anti-ROR1 and anti-GFP ADCs were evaluated in cell killing assays on ROR1 positive Ntera-2 cell and ROR1 negative MCF7 cells.

[1] = test system: ROR1 positive Ntera-2 cell; experiment: In vitro cell killing of ROR1 ADCs on Ntera-2; assay type: cell-based; conditions: for EC50: read-out: NTERA-2 EC50
Procedure: as §1, §2
as §3, with “cells. […]” for “cells.”

[2] = Differential scanning fluorimetry (protein thermal shift; TM1/TM2); assay type: physicochemical; conditions: Table 11; melting temperature of the Fab domain
Procedure: A protein thermal shift assay was carried out by mixing the protein to be assayed with an environmentally sensitive dye (SYPRO Orange, Life Technologies Cat #S-6650) in a phosphate buffered solution (PBS), and monitoring the fluorescence of the mixture in real time as it underwent controlled thermal denaturation. Protein solutions between 0.2-2 mg/mL were mixed at a 1-1 volumetric ratio with a 1-500 PBS-diluted solution of SYPRO Orange (SYPRO Orange stock dye is 5000× in DMSO). 10 μL aliquots of the protein-dye mixture were dispensed in quadruplicate in a 384-well microplate (Bio-Rad Cat #MSP-3852), and the plate was sealed with an optically clear sealing film (Bio-Rad Cat #MSB-1001) and placed in a 384-well plate real-time thermocycler (Bio-Rad CFX384 Real Time System). The protein-dye mixture was heated from […], at increments of 0.1° C. per cycle (˜1.5° C. per minute), allowing 3 seconds of equilibration at each temperature before taking a fluorescence measurement. At the end of the experiment, the transition melting temperatures (TM1 and TM2) were determined using the Bio-Rad CFX manager software. TM1 represents the melting temperature of the Fc domain. TM2 represents the melting temperature of the Fab domain.
For the thermal stability of an antibody, the first melting peak (Tm1) coincides with the unfolding of the CH2 domain (FC stability), while the second melting peak (Tm2) occurs upon unfolding of the Fab domain.

human ROR1-Fz = biological target: T1, human ROR1-Fz (Homo sapiens, UniProt Q01973); experiment: Biacore off-rate and kinetic analysis, ROR1-Fz; assay type: binding; conditions: Table 11; SP34 light chain
T1 construct: Frizzled (Fz, residues 165-305); His6 (C); purchased Acro Biosystems; host or cells: HEK293
Procedure: (§4) Anti-Fc polyclonal antibodies were immobilized onto a CMS chip (GE Life Sciences) using amine coupling chemistry (from Amine Coupling Kit, GE Life Sciences). The immobilization steps were carried out at a flow rate of 25 μL/min in 1×HBS-EP+buffer (GE Life Sciences; 10× Stock diluted before use). The sensor surfaces were activated for 7 min with a mixture of NHS (0.05 M) and EDC (0.2 M). The Anti-Fc antibodies were injected over all 4 flow cells at a concentration of 25 ug/ml in 10 mM sodium acetate, pH 4.5, for 7 min. Ethanolamine (1 M, pH 8.5) was injected for 7 min to block any remaining activated groups. An average of 12,000 response units (RU) of capture antibody was immobilized on each flow cell.
(§5) Off-rate and kinetic binding experiments were performed at 25° C. using 1×HBS-EP+buffer. Test and control antibodies were injected over the anti-Fc surface at concentrations of 5-10 μg/mL for 12 seconds at a flow rate of 10 μL/min on flow cells 2, 3 and 4, followed by a buffer wash for 30 seconds at the same flow rate. Kinetic characterization of antibody samples was carried out with a range of antigen concentrations from 1-100 nM and 1 injection of 0 nM antigen (for example, 100, 50, 25, 6.25, 1.56 and 0 nM). After capturing ligand (antibody) on the anti-Fc surface, the analyte (hROR1, Fz or Kr domains, Acro Biosystems, Delaware) was bound for 180 seconds, followed by a 600 second dissociation phase at a flow rate of 50 μL/min. Between each ligand capture and analyte binding cycle, regeneration was carried out using 2 injections of 10 mM Glycine pH 2.0 for 30 seconds at 30 μL/min, followed by a 30 second buffer wash step.
(§6) The data was fit with the Biacore T200 Evaluation software, using a 1-1 Langmuir binding model. KD (affinity, nM) was determined as a ratio of the kinetic rate constants calculated from the fits of the association and dissociation phases.
(§7) For anti-CD3-LC-containing IgGs that had detectable ROR1-binding in ELISA (1944-A07 and 1987-C05 variants), those antibodies were further tested for binding by surface plasmon resonance (SPR). Binding kinetics were assessed to the ROR1-frizzled domain (hROR1-Fz) or the ROR1-extracellular domain (hROR1) for 1944-A07 and 1987-C05 variants, respectively. Briefly, anti-ROR1 antibodies were captured via anti-human Fc polyclonal antibodies immobilized to a CM5 chip, and ROR1 recombinant proteins were flowed across the surface to assess binding kinetics. hROR1 or hROR1-Fz domain (Acro Biosystems, Delaware) binding was tested at 100, 50, 25, 6.25, 1.5625 nM. The data was fit with the Biacore™ T200 Evaluation software, using a 1-1 Langmuir binding model. KD (affinity, nM) was determined as a ratio of the kinetic rate constants calculated from the fits of the association and dissociation phases.

[3] = biological target: T2, hROR1 (ROR1-extracellular domain) (Homo sapiens, UniProt Q01973); experiment: Biacore off-rate and kinetic analysis, hROR1 extracellular domain; assay type: binding; conditions: for KD: Table 7, sample ROR1 ECD, 1987-C05 HC with different LCs; for KD (SPR binding kinetics): hROR1, 1987-C05 variants
T2 construct: the ROR1-frizzled domain (hROR1-Fz) or the ROR1-extracellular domain (hROR1); purchased Acro Biosystems
Procedure: as §4, §5, §6, §7

[4] = Table 13, ROR1 negative MCF7, 120 hours
[5] = Table 13, ROR1 positive Ntera-2, 120 hours
[6] = Homo sapiens, Table 13, ROR1 negative MCF7, 120 hours
[7] = NTERA2, Table 13, ROR1 positive Ntera-2, 120 hours

Molecule	MCF-7 Span (ROR1 negative MCF7 cells; [4]) [%]	NTERA-2 Span [1, 5] [%]	TM2 (° C.) [2] [°C]	Biacore human ROR1-Fz ka (human ROR1-Fz) [M⁻¹ s⁻¹]	Biacore human ROR1-Fz kd (human ROR1-Fz) [s⁻¹]	further results
CC[C@@]1(O)C(=O)OCc2c1cc1n(c2=O)Cc2c-1nc1cc(F)c(C)c3c1c2[C@@H](NC(=O)CO)CC3 [Dxd]	63	99	–	–	–	EC50 (ROR1 negative MCF7 cells; [4]): 0.83 nM; EC50 [1, 5]: 0.26 nM
CC[C@@]1(O)C(=O)OCc2c1cc1n(c2=O)Cc2c-1nc1cc(F)c(C)c3c1c2[C@@H](NC(=O)CN)CC3 [Gly-Exatecan]	73	98	–	–	–	EC50 (ROR1 negative MCF7 cells; [6]): 0.169 nM; EC50 [1, 7]: 6.72 nM
COc1cccc2c1C(=O)c1c(O)c3c(c(O)c1C2=O)C[C@@](O)(C(=O)NCCN)C[C@@H]3O[C@H]1C[C@H]2[C@H](O[C@@H]3[C@@H](OC)OCCN32)[C@H](C)O1 [PNU-EDA]	85	99	–	–	–	EC50 (ROR1 negative MCF7 cells; [6]): 0.3 nM; EC50 (ROR1 negative MCF7 cells; Homo sapiens, Table 15, ROR1 negative MCF7 cells, 120 hours, Cell Titer-Glo): 0.25 nM; MCF-7 Span (%) (ROR1 negative MCF7 cells; Table 15, ROR1 negative MCF7 cells, 120 hours, Cell Titer-Glo): 85%; EC50 [1, 7]: 0.026 nM; EC50 ([1]; NTERA2, Table 15, ROR1 positive Ntera-2 cells, 120 hours, Cell Titer-Glo): 0.027 nM; NTERA-2 Span (%) ([1]; Table 15, ROR1 positive Ntera-2 cells, 120 hours, Cell Titer-Glo): 98%
SRP2196-C02 (antibody, V domains shown) VH: EVQLVESGGGLVQPGGSLRLSCAASGFNITGYHIHWVRQAPGKGLEWVGFISPNSGWTYSADSVKGRFTISADTSKNTAYLQMNSLRAEDTAVYYCARDSRRYVRPFDYWGQGTLVTVSS VL: QAVVTQESALTTSPGETVTLTCRSSTGAVTTSNYANWVQEKPDHLFTGLIGGTNKRAPGVPARFSGSLIGDKAALTITGAQTEDEAIYFCALWYSNLWVFGGGTKLTVL	–	–	67	119000	0.00036	–
SRP2196-A03 (antibody, V domains shown) VH: EVQLVESGGGLVQPGGSLRLSCAASGFNITQYHIHWVRQAPGKGLEWVGYISPNSGSTHEADSVKGRFTISADTSKNTAYLQMNSLRAEDTAVYYCARDSRRYVRGWDYWGQGTLVTVSS VL: QAVVTQESALTTSPGETVTLTCRSSTGAVTTSNYANWVQEKPDHLFTGLIGGTNKRAPGVPARFSGSLIGDKAALTITGAQTEDEAIYFCALWYSNLWVFGGGTKLTVL	–	–	70	169000	0.000275	–
SRP2196-C04 (antibody, V domains shown) VH: EVQLVESGGGLVQPGGSLRLSCAASGFNITGYYIHWVRQAPGKGLEWVGFIAPLSGSTHNADSVKGRFTISADTSKNTAYLQMNSLRAEDTAVYYCARESRRYVNPWDYWGQGTLVTVSS VL: QAVVTQESALTTSPGETVTLTCRSSTGAVTTSNYANWVQEKPDHLFTGLIGGTNKRAPGVPARFSGSLIGDKAALTITGAQTEDEAIYFCALWYSNLWVFGGGTKLTVL	–	–	70	131000	0.000704	–
SRP2196-C03 (antibody, V domains shown) VH: EVQLVESGGGLVQPGGSLRLSCAASGFNITGYYIHWVRQAPGKGLEWVGQISPNSGSTYSADSVKGRFTISADTSKNTAYLQMSSLRAEDTAVYYCARDSRRYVLSWDYWGQGTLVTVSS VL: QAVVTQESALTTSPGETVTLTCRSSTGAVTTSNYANWVQEKPDHLFTGLIGGTNKRAPGVPARFSGSLIGDKAALTITGAQTEDEAIYFCALWYSNLWVFGGGTKLTVL	–	–	69	143000	0.000461	–
1987-C05 HC w/hSP34 LC3: HC of lead antibody 1987-C05 co-expressed with the LC of anti-CD3 antibody "hSP34-LC3" (antibody, V domains shown) VH: EVQLVESGGGLVQPGGSLRLSCAASGFNISDYDIHWVRQAPGKGLEWVGGIDPDDGSTDYADSVKGRFTISADTSKNTAYLQMNSLRAEDTAVYYCARDYGVFDYWGQGTLVTVSS VL: QTVVTQEPSLTVSPGGTVTLTCGSSTGAVTSGYYPNWFQQKPGQAPRGLIGGTKFLAPGTPARFSGSLLGGKAALTLSGVQPEDEAEYYCALWYSNRWVFGGGTQLTVTG	–	–	–	–	–	KD [3]: Not detected; KD (SPR binding kinetics) [3]: no detectable binding
1987-C05 HC w/hOKT3 LC1: HC of lead antibody 1987-C05 co-expressed with the LC of anti-CD3 antibody "hOKT3-LC1" (antibody, V domains shown) VH: EVQLVESGGGLVQPGGSLRLSCAASGFNISDYDIHWVRQAPGKGLEWVGGIDPDDGSTDYADSVKGRFTISADTSKNTAYLQMNSLRAEDTAVYYCARDYGVFDYWGQGTLVTVSS VL: DIQMTQSPSSLSASVGDRVTITCSASSSVSYMNWYQQKPGKAPKRLIYDTSKLASGVPSRFSGSGSGTEYTLTISSLQPEDFATYYCQQWSSNPFTFGQGTKLEIK	–	–	–	–	–	KD [3]: Not detected; KD (SPR binding kinetics) [3]: no detectable binding
